Measurements: BindingDB's records for doi:10.1016/j.ejmech.2013.09.015 (China Pharmaceutical University, 2013)

Assay: Agonist activity at VDR in human HL60 cells assessed as induction of cell differentiation after 96 hrs by NBT reduction assay

| Compound | EC50 [nM] |
| --- | --- |
| CCC(CC)(c1ccc(OCC(O)C(C)(C)C)c(C)c1)c1ccc(C(=O)N[C@@H](C)CO)n1C (stereo not given in full) | 570 |
| C=C1/C(=C\C=C2/CCC[C@]3(C)[C@@H]([C@H](C)CC[C@@H](O)C(C)C)CC[C@@H]23)C[C@@H](O)C[C@@H]1O [TACALCITOL] | 7.1 |
| CCC(CC)(c1ccc(OCC(=O)C(C)(C)C)c(C)c1)c1ccc(C(=O)N[C@@H](CC(=O)O)C(=O)O)n1C | 410 |
| CCn1c(C(=O)NCCO)ccc1C(CC)(CC)c1ccc(OCC(O)C(C)(C)C)c(C)c1 (stereo not given) | 5640 |
| CCn1c(C(=O)NCC(=O)OC)ccc1C(CC)(CC)c1ccc(OCC(=O)C(C)(C)C)c(C)c1 | 1830 |
| CCC(CC)(c1ccc(OCC(O)C(C)(C)C)c(C)c1)c1ccc(C(=O)NCCCO)n1C (stereo not given) | 150 |
| CCC(CC)(c1ccc(OCC(O)C(C)(C)C)c(C)c1)c1ccc(C(=O)NCC(=O)O)n1C (stereo not given) | 4950 |
| CCC(CC)(c1ccc(OCC(=O)C(C)(C)C)c(C)c1)c1ccc(C(=O)NCC(=O)OC)n1C | 23 |
| CCn1c(C(=O)N[C@@H](C)CO)ccc1C(CC)(CC)c1ccc(OCC(O)C(C)(C)C)c(C)c1 (stereo not given in full) | 1.1 |
| CCn1c(C(=O)N[C@H](CO)CCO)ccc1C(CC)(CC)c1ccc(OCC(O)C(C)(C)C)c(C)c1 (stereo not given in full) | 110 |
| CCC(CC)(c1ccc(OCC(=O)C(C)(C)C)c(C)c1)c1ccc(C(=O)N[C@@H](C)C(=O)O)n1C | 2630 |
| CCn1c(C(=O)N[C@@H](C)C(=O)O)ccc1C(CC)(CC)c1ccc(OCC(O)C(C)(C)C)c(C)c1 (stereo not given in full) | 4.1 |
| CCC(CC)(c1ccc(OCC(O)C(C)(C)C)c(C)c1)c1ccc(C(=O)N[C@H](CO)CCO)n1C (stereo not given in full) | 200 |
| CCC(CC)(c1ccc(OCC(=O)C(C)(C)C)c(C)c1)c1ccc(C(=O)NCCC(=O)OC)n1C | 790 |
| CCC(CC)(c1ccc(OCC(O)C(C)(C)C)c(C)c1)c1ccc(C(=O)NCCC(=O)O)n1C (stereo not given) | 1600 |
